One experiment concerns the target Ephrin type-A receptor 4 (Homo sapiens, UniProt P54764). The settings on record: at 10 µM.
The target in experiment [1] is Serine/threonine-protein kinase Nek7 (Homo sapiens) (UniProt Q8TDX7). Description: Selectivity interaction (KinomeScan (DiscoverX)) EUB0000092b NEK7. The settings on record: at 10 µM.
Experiment [2] has as its target T1, Megakaryocyte-associated tyrosine-protein kinase (Homo sapiens) (UniProt P42679).
T1 sequence (whole entry): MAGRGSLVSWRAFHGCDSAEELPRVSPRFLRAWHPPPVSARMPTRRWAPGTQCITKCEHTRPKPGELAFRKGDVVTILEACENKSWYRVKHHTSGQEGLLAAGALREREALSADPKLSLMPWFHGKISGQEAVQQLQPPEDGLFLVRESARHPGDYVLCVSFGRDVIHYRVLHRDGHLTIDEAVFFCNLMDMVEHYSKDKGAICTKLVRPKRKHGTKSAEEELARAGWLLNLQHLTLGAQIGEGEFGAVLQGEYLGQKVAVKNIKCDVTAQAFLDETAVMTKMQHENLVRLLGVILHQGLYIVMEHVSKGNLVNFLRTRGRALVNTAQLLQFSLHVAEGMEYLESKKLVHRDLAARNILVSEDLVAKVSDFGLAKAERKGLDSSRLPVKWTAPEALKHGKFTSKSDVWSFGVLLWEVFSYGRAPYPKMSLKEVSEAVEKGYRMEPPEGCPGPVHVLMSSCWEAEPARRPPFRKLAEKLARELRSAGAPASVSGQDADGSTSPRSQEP
Description: Selectivity interaction (KinomeScan (DiscoverX)) EUB0001049a MATK. The note with it: at 1 µM.

The target of experiment [3] is Mitogen-activated protein kinase 10 (Homo sapiens, UniProt P53779). Description: Selectivity interaction (KinomeScan (DiscoverX)) EUB0000655a MAPK10. The settings on record: at 10 µM.
Experiment [4] has as its target Cyclin-dependent kinase 7 (Homo sapiens, UniProt P50613). Description: Selectivity interaction (KinomeScan (DiscoverX)) EUB0000666a CDK7. The settings on record: at 10 µM.
In experiment [5] the target is Casein kinase I isoform alpha (Homo sapiens, UniProt P48729). Description: Selectivity interaction (KinomeScan (DiscoverX)) EUB0000607a CSNK1A1. The note with it: at 10 µM.
The target of experiment [6] is T2, Inhibitor of nuclear factor kappa-B kinase subunit epsilon (Homo sapiens) (UniProt Q14164).
T2 sequence (whole entry): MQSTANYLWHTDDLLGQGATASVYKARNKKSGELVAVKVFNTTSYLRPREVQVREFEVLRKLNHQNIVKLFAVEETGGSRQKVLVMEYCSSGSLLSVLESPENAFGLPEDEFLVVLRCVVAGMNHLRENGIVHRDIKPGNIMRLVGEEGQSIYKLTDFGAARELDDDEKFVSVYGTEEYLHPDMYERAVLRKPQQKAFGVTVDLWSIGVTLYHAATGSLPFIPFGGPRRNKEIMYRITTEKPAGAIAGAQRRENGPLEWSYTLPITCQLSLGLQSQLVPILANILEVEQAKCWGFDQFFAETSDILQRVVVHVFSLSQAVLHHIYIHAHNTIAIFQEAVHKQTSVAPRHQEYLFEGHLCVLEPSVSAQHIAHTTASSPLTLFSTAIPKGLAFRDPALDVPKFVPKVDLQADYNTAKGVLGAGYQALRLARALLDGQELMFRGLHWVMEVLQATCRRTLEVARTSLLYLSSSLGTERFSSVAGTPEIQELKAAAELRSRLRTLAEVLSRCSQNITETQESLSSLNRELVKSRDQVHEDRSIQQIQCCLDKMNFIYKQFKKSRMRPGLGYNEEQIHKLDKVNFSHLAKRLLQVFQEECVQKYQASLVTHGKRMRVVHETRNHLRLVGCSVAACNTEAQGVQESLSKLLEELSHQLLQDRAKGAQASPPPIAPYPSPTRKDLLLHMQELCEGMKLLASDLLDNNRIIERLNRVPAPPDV
Description: Selectivity interaction (ActivX KiNativ screen (kinase selectivity in THP-1 cell lysates)) EUB0000639a IKBKE. It is filed as subcellular. The note with it: lysate, at 1 µM.

The target in experiment [7] is Mitogen-activated protein kinase kinase kinase 11 (Homo sapiens) (UniProt Q16584). Description: Selectivity interaction (ActivX KiNativ screen (kinase selectivity in THP-1 cell lysates)) EUB0000639a MAP3K11. It is filed as subcellular. The note with it: lysate, at 5 µM.
The target in experiment [8] is Tyrosine-protein kinase JAK2 (Homo sapiens, UniProt O60674). Description: Selectivity interaction (NanoBRET assay (HEK293T cells)) EUB0001559a JAK2. It is filed as cell-based, HEK-293T. On the technique in general: In BRET a luciferase serves as donor, and the signal depends on an acceptor being close.
Experiment [9] concerns the target Insulin-like growth factor 1 receptor (Homo sapiens, UniProt P08069). Description: Selectivity interaction (Kinase panel (enzymatic assay)) EUB0000595a IGF1R.
Experiment [10] concerns the target T3, Kinase suppressor of Ras 2 (Homo sapiens) (UniProt Q6VAB6).
T3 sequence (whole entry): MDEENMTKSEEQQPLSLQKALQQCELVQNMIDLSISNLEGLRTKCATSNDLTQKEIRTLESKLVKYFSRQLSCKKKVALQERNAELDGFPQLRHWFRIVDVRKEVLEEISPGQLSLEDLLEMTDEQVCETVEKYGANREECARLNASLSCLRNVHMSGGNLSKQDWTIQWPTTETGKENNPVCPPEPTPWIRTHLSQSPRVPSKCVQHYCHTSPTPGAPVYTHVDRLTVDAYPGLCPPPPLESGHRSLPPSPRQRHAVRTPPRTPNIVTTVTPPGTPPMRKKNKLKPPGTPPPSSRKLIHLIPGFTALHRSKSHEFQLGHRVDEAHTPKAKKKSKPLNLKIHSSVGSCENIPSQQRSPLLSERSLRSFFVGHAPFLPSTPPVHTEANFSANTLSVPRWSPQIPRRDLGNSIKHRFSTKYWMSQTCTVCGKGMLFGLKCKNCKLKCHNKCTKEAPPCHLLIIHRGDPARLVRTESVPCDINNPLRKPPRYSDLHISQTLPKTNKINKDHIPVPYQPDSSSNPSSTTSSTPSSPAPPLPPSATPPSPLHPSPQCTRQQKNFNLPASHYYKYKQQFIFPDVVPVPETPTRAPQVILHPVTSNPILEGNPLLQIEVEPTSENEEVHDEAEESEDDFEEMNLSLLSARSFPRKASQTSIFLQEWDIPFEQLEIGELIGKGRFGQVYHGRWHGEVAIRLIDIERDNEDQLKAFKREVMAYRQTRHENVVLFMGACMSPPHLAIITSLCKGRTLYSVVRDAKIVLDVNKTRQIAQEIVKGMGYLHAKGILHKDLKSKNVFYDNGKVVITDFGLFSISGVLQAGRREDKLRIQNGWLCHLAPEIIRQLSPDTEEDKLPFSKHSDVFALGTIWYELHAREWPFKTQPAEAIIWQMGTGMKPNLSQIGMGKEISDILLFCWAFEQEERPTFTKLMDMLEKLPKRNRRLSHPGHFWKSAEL
Description: Selectivity interaction (ActivX KiNativ screen (ex vivo kinase selectivity in human PBMCs)) EUB0001619a KSR2. It is filed as cell-based. The settings on record: PBMC, at 1 µM.

The target of experiment [11] is RAF proto-oncogene serine/threonine-protein kinase (Homo sapiens) (UniProt P04049). Description: Selectivity interaction (KinomeScan (DiscoverX)) EUB0000618a RAF1. The note with it: at 10 µM.

Experimental findings from ChEMBL document CHEMBL5465560, “Selectivity Literature for EUbOPEN Chemogenomic Library” (2024) are described below.

Sequence of Serine/threonine-protein kinase Nek7 (Homo sapiens) (Q8TDX7 whole entry, looked up): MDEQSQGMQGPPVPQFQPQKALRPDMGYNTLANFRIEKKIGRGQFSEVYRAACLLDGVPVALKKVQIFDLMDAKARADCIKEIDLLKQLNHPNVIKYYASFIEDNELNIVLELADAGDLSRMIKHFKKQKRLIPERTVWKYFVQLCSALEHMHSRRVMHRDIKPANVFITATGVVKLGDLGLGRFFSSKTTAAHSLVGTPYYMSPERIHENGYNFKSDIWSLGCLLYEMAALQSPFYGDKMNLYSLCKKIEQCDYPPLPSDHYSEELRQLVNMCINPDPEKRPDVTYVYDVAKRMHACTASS
Sequence of Casein kinase I isoform alpha (P48729 2-337 limits assumed): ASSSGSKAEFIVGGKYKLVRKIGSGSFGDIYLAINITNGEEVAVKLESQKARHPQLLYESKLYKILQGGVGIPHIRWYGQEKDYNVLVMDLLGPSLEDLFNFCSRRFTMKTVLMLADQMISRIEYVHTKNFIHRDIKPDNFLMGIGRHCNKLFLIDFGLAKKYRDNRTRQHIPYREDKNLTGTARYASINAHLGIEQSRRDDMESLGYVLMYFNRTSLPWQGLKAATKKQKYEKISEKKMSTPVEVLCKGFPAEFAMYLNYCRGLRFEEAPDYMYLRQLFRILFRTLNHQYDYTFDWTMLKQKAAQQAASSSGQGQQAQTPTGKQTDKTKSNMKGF
Sequence of Insulin-like growth factor 1 receptor (P08069 31-736 limits assumed): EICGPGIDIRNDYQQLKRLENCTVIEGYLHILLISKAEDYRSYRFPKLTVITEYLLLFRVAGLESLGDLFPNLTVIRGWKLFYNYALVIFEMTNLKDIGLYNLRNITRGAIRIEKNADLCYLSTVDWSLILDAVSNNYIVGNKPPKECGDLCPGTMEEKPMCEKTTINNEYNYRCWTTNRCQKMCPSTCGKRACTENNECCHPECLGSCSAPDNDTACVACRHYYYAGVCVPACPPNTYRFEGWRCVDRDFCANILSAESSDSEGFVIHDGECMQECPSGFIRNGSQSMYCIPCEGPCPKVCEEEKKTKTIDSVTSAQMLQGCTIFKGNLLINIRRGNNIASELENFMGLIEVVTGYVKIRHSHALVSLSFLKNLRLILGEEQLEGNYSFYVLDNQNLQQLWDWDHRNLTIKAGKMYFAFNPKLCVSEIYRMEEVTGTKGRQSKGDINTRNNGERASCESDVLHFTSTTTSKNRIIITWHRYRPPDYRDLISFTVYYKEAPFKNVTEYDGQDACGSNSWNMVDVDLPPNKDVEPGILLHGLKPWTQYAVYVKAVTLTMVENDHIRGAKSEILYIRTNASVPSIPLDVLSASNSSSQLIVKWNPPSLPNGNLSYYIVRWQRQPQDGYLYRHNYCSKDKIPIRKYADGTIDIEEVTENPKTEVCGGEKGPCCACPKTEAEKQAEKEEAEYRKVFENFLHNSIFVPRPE
Sequence of Insulin-like growth factor 1 receptor (P08069 741-1367 limits assumed): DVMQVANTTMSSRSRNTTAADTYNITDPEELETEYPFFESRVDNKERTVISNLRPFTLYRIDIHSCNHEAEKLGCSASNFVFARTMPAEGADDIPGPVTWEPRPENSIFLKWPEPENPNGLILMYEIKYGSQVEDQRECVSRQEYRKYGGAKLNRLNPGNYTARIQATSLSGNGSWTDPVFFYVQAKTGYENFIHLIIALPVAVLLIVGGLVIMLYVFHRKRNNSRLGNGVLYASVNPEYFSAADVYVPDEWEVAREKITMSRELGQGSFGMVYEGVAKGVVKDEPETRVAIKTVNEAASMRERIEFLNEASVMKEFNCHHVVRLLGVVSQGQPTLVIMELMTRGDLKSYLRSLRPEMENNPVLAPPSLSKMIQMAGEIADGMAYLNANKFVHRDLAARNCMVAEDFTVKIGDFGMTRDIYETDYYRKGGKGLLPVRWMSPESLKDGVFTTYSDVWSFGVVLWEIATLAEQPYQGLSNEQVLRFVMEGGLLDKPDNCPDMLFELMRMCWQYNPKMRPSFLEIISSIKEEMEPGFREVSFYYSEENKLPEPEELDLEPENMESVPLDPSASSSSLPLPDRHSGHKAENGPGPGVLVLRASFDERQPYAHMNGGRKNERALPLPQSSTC
Sequence of Cyclin-dependent kinase 7 (P50613 whole entry, canonical isoform): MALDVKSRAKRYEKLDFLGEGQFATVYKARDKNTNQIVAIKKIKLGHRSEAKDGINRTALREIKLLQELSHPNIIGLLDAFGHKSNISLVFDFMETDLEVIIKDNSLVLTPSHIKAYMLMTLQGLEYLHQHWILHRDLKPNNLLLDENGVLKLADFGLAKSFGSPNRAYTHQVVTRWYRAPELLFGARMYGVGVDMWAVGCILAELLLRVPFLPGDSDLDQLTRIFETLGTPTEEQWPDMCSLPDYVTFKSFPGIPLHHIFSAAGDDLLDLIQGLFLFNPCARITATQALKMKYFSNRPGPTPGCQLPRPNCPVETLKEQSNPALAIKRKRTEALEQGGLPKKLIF
Sequence of Tyrosine-protein kinase JAK2 (O60674 whole entry): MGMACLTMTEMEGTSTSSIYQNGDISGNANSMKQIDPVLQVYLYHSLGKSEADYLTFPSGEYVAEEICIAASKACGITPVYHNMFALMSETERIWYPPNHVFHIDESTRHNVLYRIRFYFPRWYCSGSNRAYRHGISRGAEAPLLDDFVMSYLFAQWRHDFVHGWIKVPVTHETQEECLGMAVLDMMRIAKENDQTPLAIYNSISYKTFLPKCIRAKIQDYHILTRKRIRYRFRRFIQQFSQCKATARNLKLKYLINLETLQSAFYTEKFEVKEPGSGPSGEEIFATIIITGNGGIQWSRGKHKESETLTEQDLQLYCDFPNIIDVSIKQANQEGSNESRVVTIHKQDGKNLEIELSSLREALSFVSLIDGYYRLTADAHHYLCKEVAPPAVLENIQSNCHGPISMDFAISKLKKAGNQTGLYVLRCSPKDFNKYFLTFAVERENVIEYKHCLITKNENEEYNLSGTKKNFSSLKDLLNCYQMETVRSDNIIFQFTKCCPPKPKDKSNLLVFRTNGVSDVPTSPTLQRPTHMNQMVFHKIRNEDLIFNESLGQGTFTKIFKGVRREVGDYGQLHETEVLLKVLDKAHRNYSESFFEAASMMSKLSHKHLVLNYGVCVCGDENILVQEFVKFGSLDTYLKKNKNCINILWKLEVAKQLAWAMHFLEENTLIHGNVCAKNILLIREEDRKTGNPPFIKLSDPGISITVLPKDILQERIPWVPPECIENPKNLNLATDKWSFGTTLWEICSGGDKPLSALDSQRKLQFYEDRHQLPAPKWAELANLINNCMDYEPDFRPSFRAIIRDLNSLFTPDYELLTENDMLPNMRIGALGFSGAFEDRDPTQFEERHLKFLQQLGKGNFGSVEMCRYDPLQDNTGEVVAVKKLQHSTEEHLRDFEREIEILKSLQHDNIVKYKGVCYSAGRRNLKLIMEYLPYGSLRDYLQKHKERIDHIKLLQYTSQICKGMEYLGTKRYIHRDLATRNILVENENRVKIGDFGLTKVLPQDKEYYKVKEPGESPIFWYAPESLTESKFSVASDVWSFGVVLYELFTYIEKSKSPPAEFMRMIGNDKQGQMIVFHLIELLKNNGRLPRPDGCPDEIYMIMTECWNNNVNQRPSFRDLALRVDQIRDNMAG
Sequence of Mitogen-activated protein kinase kinase kinase 11 (Homo sapiens) (Q16584 whole entry, looked up): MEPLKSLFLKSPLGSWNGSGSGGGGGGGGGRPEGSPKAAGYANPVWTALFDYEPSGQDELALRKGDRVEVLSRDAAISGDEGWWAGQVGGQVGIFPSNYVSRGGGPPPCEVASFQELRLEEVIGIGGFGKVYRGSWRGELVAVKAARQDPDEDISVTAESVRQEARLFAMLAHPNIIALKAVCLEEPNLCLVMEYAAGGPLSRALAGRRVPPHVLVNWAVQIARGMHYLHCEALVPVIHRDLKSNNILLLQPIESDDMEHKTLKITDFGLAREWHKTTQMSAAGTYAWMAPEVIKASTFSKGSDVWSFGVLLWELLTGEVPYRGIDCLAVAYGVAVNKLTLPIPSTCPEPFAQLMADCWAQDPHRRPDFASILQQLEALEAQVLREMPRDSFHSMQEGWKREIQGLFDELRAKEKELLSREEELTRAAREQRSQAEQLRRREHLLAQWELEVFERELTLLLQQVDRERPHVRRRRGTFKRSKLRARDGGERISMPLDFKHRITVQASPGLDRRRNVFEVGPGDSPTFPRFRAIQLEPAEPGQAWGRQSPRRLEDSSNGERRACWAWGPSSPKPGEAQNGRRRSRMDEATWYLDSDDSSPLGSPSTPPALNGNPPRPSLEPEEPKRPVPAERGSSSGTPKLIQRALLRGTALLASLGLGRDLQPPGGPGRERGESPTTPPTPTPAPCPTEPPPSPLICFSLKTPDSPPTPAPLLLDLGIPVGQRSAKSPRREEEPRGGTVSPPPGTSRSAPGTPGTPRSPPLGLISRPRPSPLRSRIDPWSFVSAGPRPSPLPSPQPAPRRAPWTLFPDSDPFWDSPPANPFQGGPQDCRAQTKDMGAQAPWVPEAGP
Sequence of RAF proto-oncogene serine/threonine-protein kinase (Homo sapiens) (P04049 whole entry): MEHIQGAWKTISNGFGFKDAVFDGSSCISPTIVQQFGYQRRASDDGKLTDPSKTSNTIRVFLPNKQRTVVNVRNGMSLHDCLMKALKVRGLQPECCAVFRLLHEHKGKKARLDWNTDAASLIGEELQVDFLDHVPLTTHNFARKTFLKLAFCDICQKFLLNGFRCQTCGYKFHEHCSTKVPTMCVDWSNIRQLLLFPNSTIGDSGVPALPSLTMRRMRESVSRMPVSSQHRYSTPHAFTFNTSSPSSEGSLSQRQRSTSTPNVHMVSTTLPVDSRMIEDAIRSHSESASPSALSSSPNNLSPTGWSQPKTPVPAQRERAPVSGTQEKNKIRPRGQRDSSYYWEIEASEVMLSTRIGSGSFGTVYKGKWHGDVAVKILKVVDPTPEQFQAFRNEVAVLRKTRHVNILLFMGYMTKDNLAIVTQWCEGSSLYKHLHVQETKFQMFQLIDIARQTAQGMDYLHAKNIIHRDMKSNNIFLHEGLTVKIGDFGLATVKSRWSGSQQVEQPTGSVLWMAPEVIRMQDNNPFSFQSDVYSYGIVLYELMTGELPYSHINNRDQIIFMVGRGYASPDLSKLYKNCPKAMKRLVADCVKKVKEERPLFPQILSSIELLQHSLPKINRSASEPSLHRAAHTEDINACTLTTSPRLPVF

On to `CCN(CC)CCCCNc1ncc2cc(-c3cc(OC)cc(OC)c3)c(NC(=O)NC(C)(C)C)nc2n1`, for which, at Ephrin type-A receptor 4, the % of control came to 100%.

As to `CCC(=O)N1CCN(c2ccc(-n3c(=O)ccc4cnc5ccc(-c6cnc7ccccc7c6)cc5c43)cc2C(F)(F)F)CC1`, the % of control in [1] is 90%.

As to `COc1cc(Nc2nc(C)cc(-c3cnn4nc(OC)ccc34)n2)cc(C(F)(F)F)c1`, the % of control in experiment [2] came out at 100%.

For the compound `CN(C)CCOc1ccc(-c2nc(-c3ccncc3)c(-c3ccc4c(c3)CC/C4=N\O)[nH]2)cc1`, the % of control in experiment [3] was found to be 8.6%.

`O=C(NOC[C@H](O)CO)c1ccc(F)c(F)c1Nc1ccc(I)cc1F` had a % of control in [4] of 83%.

The compound `CNC(=O)Nc1ccc(-c2nc(N3CC4CCC(C3)O4)c3cnn(C4CCC5(CC4)OCCO5)c3n2)cc1` came in with a % of control in experiment [5] of 100%.

Consider `CC[C@@H]1[C@H](F)C(=O)N[C@@H]1COc1nccc2cc(C(N)=O)c(OC)cc12` [ZIMLOVISERTIB], for which the % of inhibition in experiment [6] was 10%; in [7], -18.7%.

In experiment [8], `CN(C(=O)c1cnn2cccnc12)c1cc2c(cc1N1CCOCC1)C(=O)N(C[C@@H](F)C(C)(C)O)C2` came in with a half-maximal effective concentration (EC50) above 50 µM.

`COCC(=O)NC/C=C/c1ccc2ncnc(Nc3ccc(Oc4ccc(C)nc4)c(C)c3)c2c1` [CP-724714] returned a 50% inhibitory concentration (IC50) in experiment [9] above 10 µM.

In the case of `N#Cc1cccc(-c2c[nH]c3ncnc(N4CCOCC4)c23)c1`, the % of inhibition in experiment [10] came to 12%.

For `O[C@H]1CC[C@H](Nc2ncc3nc(Nc4c(F)cc(F)cc4F)n([C@H]4CCOC4)c3n2)CC1`, the % of control in experiment [11] is 100%.

The EC50 is the concentration that produces a half-maximal response. Read a high EC50 as weaker potency. The term IC50 denotes the concentration that gives 50% inhibition. Lower therefore signals inhibition by little substance.
